Measured values: patent publication US10189836B2, “Therapeutic compounds, compositions and methods of use thereof” (Genentech, Inc., priority 2015, dated 2019)

Assays:
[1] = molecular target: isolated recombinant JAK1 kinase domain (Homo sapiens (Human), UniProt P23458); test: JAK1 enzyme assay (Caliper LabChip, Ki); assay type: biochemical; conditions: isolated recombinant JAK1 kinase domain, 1.5 nM enzyme, ATP 25 μM
[2] = molecular target: isolated recombinant JAK2 kinase domain (Homo sapiens (Human), UniProt O60674); test: JAK2 enzyme assay (Caliper LabChip, Ki); assay type: biochemical; conditions: isolated recombinant JAK2 kinase domain, 0.2 nM enzyme, ATP 25 μM
Chain of isolated recombinant JAK2 kinase domain (O60674 849-1124): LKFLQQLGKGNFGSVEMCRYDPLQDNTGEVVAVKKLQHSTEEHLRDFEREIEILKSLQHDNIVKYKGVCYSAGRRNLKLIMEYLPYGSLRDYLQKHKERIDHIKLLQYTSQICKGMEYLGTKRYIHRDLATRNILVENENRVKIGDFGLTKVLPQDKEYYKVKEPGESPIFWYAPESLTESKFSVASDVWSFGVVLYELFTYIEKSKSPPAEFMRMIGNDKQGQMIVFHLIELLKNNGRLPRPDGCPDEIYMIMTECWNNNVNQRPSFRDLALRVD

Chain of isolated recombinant JAK1 kinase domain (P23458 875-1153): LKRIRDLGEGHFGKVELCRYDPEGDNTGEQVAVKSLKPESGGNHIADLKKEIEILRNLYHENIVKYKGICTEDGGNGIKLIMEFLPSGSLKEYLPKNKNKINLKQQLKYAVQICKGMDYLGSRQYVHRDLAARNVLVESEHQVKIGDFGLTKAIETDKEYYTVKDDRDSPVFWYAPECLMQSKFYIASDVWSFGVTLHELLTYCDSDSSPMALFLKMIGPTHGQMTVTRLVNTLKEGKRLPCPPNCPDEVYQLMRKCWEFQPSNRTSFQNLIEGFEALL

Row | Compound | Ki [1] [nM] | Ki [2] [nM]
1 | CN1CCN(C(=O)Cn2cc(Nc3nc4c(N5CC6CCC(C5)C6C(=O)N5CC(C(F)(F)F)C5)cccn4n3)cn2)CC1 (centres unmarked) [Example 43, 1-(4-methylpiperazin-1-yl)-2-(4-[[8-(8-[[3-(trifluoromethyl)azetidin-1-yl]carbonyl]-3-azabicyclo[3.2.1]octan-3-yl)-[1,2,4]triazolo[1,5-a]pyridin-2-yl]amino]-1H-pyrazol-1-yl)ethan-1-one] | 1.1 | 1.9
2 | O=C(Cn1cc(Nc2nc3c(N4CC5CCC(C4)N5C(=O)N4CC(C(F)(F)F)C4)cccn3n2)cn1)N1CCC(N2CCOCC2)CC1 [Example 44, 1-(4-morpholino-1-piperidyl)-2-[4-[[8-[8-[3-(trifluoromethyl)azetidine-1-carbonyl]-3,8-diazabicyclo[3.2.1]octan-3-yl]-[1,2,4]triazolo[1,5-a]pyridin-2-yl]amino]pyrazol-1-yl]ethanone] | 0.9 | 0.6
3 | CN1CCN(C(=O)Cn2cc(Nc3nc4c(N5CC6CCC(C5)N6C(=O)COCC(F)(F)F)cccn4n3)cn2)CC1 [Example 45, 1-(4-methylpiperazin-1-yl)-2-[4-[[8-[8-[2-(2,2,2-trifluoroethoxy)acetyl]-3,8-diazabicyclo[3.2.1]octan-3-yl]-[1,2,4]triazolo[1,5-a]pyridin-2-yl]amino]pyrazol-1-yl]ethanone] | 1 | 3.5
4 | CN1CCN(C(=O)Cn2cc(Nc3nc4c(N5CC6CCC(C5)N6C(=O)C5CC(F)(F)C5)cccn4n3)cn2)CC1 [Example 46, 2-[4-[[8-[8-(3,3-difluorocyclobutanecarbonyl)-3-yl]-3,8-diazabicyclo[3.2.1]octan-[1,2,4]triazolo[1,5-a]pyridin-2-yl]amino]pyrazol-1-yl]-1-(4-methylpiperazin-1-yl)ethanone] | 1.4 | 1.7
5 | CC(CC(F)(F)F)C(=O)N1C2CCC1CN(c1cccn3nc(Nc4cnn(CC(=O)N5CCN(C)CC5)c4)nc13)C2 (centres unmarked) [Example 47, 4,4,4-trifluoro-2-methyl-1-[3-[2-[[1-[2-(4-methylpiperazin-1-yl)-2-oxo-ethyl]pyrazol-4-yl]amino]-[1,2,4]triazolo[1,5-a]pyridin-8-yl]-3,8-diazabicyclo[3.2.1]octan-8-yl]butan-1-one] | 1.8 | 2
6 | CN1CCN(C(=O)Cn2cc(Nc3nc4c(N5C6CC5CN(C(=O)CCC(F)(F)F)C6)cccn4n3)cn2)CC1 [Example 48, 4,4,4-trifluoro-1-[6-[2-[[1-[2-(4-methylpiperazin-1-yl)-2-oxo-ethyl]pyrazol-4-yl]amino]-[1,2,4]triazolo[1,5-a]pyridin-8-yl]-3,6-diazabicyclo[3.1.1]heptan-3-yl]butan-1-one] | > 560 | > 320
7 | CN1CCN(C(=O)Cn2cc(Nc3nc4c(N5CC6CCC(C5)N6C(=O)C5C6CC(F)(F)CC65)cccn4n3)cn2)CC1 (centres unmarked) [Example 49, 2-[4-[[8-[8-(3,3-difluorobicyclo[3.1.0]hexane-6-carbonyl)-3,8-diazabicyclo[3.2.1]octan-3-yl]-[1,2,4]triazolo[1,5-a]pyridin-2-yl]amino]pyrazol-1-yl]-1-(4-methylpiperazin-1-yl)ethanone] | 1.5 | 4.1
8 | CN1CCN(C(=O)Cn2cc(Nc3nc4c(N5CC6CCC(C5)N6C(=O)C5CCSC5)cccn4n3)cn2)CC1 (centres unmarked) [Example 50, 1-(4-methylpiperazin-1-yl)-2-[4-[[8-[8-(tetrahydrothiophene-3-carbonyl)-3,8-diazabicyclo[3.2.1]octan-3-yl]-[1,2,4]triazolo[1,5-a]pyridin-2-yl]amino]pyrazol-1-yl]ethanone] | 1.2 | 1.5
9 | CN1CCN(C(=O)Cn2cc(Nc3nc4c(N5CC6CCC(C5)N6C(=O)C5CCC(F)(F)CC5)cccn4n3)cn2)CC1 [Example 51, 2-[4-[[8-[8-(4,4-difluorocyclohexanecarbonyl)-3,8-diazabicyclo[3.2.1]octan-3-yl]-[1,2,4]triazolo[1,5-a]pyridin-2-yl]amino]pyrazol-1-yl]-1-(4-methylpiperazin-1-yl)ethanone] | 2 | 4.8
10 | CN1CCN(C(=O)Cn2cc(Nc3nc4c(N5CC6CCC(C5)N6C(=O)C5CCSCC5)cccn4n3)cn2)CC1 [Example 52, 1-(4-methylpiperazin-1-yl)-2-[4-[[8-[8-(tetrahydrothiopyran-4-carbonyl)-3,8-diazabicyclo[3.2.1]octan-3-yl]-[1,2,4]triazolo[1,5-a]pyridin-2-yl]amino]pyrazol-1-yl]ethanone] | 3.1 | 5.2
11 | CN1CCN(C(=O)Cn2cc(Nc3nc4c(N5CC6CCC(C5)N6C(=O)C5CC6CCC5O6)cccn4n3)cn2)CC1 (centres unmarked) [Example 53, 1-(4-methylpiperazin-1-yl)-2-[4-[[8-[8-(7-oxabicyclo[2.2.1]heptane-3-carbonyl)-3,8-diazabicyclo[3.2.1]octan-3-yl]-[1,2,4]triazolo[1,5-a]pyridin-2-yl]amino]pyrazol-1-yl]ethanone] | 1.9 | 2.8
12 | CN1CCN(C(=O)Cn2cc(Nc3nc4c(N5CC6CCC(C5)N6C(=O)COC(F)(F)F)cccn4n3)cn2)CC1 [Example 54, 1-(4-methylpiperazin-1-yl)-2-[4-[[8-[8-[2-(trifluoromethoxy)acetyl]-3,8-diazabicyclo[3.2.1]octan-3-yl]-[1,2,4]triazolo[1,5-a]pyridin-2-yl]amino]pyrazol-1-yl]ethanone] | 1.6 | 4.9
13 | CN1CCN(C(=O)Cn2cc(Nc3nc4c(N5CC6CCC(C5)N6Cc5cccc(C#N)c5)cccn4n3)cn2)CC1 [Example 55, 3-[[3-[2-[[1-[2-(4-methylpiperazin-1-yl)-2-oxo-ethyl]pyrazol-4-yl]amino]-[1,2,4]triazolo[1,5-a]pyridin-8-yl]-3,8-diazabicyclo[3.2.1]octan-8-yl]methyl]benzonitrile] | 1.9 | 4
14 | CN1CCN(C(=O)Cn2cc(Nc3nc4c(N5CC6CCC(C5)N6Cc5ccc(C#N)cc5)cccn4n3)cn2)CC1 [Example 56, 4-[[3-[2-[[1-[2-(4-methylpiperazin-1-yl)-2-oxo-ethyl]pyrazol-4-yl]amino]-[1,2,4]triazolo[1,5-a]pyridin-8-yl]-3,8-diazabicyclo[3.2.1]octan-8-yl]methyl]benzonitrile] | 1.4 | 5.1
15 | CN1CCN(C(=O)Cn2cc(Nc3nc4c(N5CC6CCC(C5)N6C(=O)C5CCC(F)(F)C5)cccn4n3)cn2)CC1 (centres unmarked) [Example 58, 2-[4-[[8-[8-(3,3-difluorocyclopentanecarbonyl)-3,8-diazabicyclo[3.2.1]octan-3-yl]-[1,2,4]triazolo[1,5-a]pyridin-2-yl]amino]pyrazol-1-yl]-1-(4-methylpiperazin-1-yl)ethanone] | 1.6 | 2.5
16 | CCN1CCN(C(=O)Cn2cc(Nc3nc4c(N5CC6CCC(C5)N6C(=O)N5CC(C(F)(F)F)C5)cccn4n3)cn2)CC1 [Example 59, 1-(4-ethylpiperazin-1-yl)-2-[4-[[8-[8-[3-(trifluoromethyl)azetidine-1-carbonyl]-3,8-diazabicyclo[3.2.1]octan-3-yl]-[1,2,4]triazolo[1,5-a]pyridin-2-yl]amino]pyrazol-1-yl]ethanone] | 0.8 | 0.5
17 | CN1CCN(C(=O)Cn2cc(Nc3nc4c(N5CC6CCC(C5)N6S(=O)(=O)CCC(F)(F)F)cccn4n3)cn2)CC1 [Example 60, 1-(4-methylpiperazin-1-yl)-2-[4-[[8-[8-(3,3,3-trifluoropropylsulfonyl)-3,8-diazabicyclo[3.2.1]octan-3-yl]-[1,2,4]triazolo[1,5-a]pyridin-2-yl]amino]pyrazol-1-yl]ethanone] | 0.7 | 1.5
18 | CN1CCN(C(=O)Cn2cc(Nc3nc4c(N5CC6CCC(C5)N6S(=O)(=O)c5ccccc5)cccn4n3)cn2)CC1 [Example 61, 2-[4-[[8-[8-(benzenesulfonyl)-3,8-diazabicyclo[3.2.1]octan-3-yl]-[1,2,4]triazolo[1,5-a]pyridin-2-yl]amino]pyrazol-1-yl]-1-(4-methylpiperazin-1-yl)ethanone] | 0.6 | 1
19 | CN(C1CCN(C(=O)Cn2cc(Nc3nc4c(N5CC6CCC(C5)N6C(=O)N5CC(C(F)(F)F)C5)cccn4n3)cn2)CC1)C1COC1 [Example 62, 1-[4-[methyl(oxetan-3-yl)amino]piperidin-1-yl]-2-(4-[[8-(8-[[3-(trifluoromethyl)azetidin-1-yl]carbonyl]-3,8-diazabicyclo[3.2.1]octan-3-yl)-[1,2,4]triazolo[1,5-a]pyridin-2-yl]amino]-1H-pyrazol-1-yl)ethan-1-one] | 0.7 | 0.5
20 | CN1CCN(C(=O)Cn2cc(Nc3nc4c(N5CC6CCC(C5)N6Cc5ccccc5C#N)cccn4n3)cn2)CC1 [Example 63, 2-[[3-[2-[[1-[2-(4-methylpiperazin-1-yl)-2-oxo-ethyl]pyrazol-4-yl]amino]-[1,2,4]triazolo[1,5-a]pyridin-8-yl]-3,8-diazabicyclo[3.2.1]octan-8-yl]methyl]benzonitrile] | 1.8 | 2.4
21 | CN1CCN(C(=O)Cn2cc(Nc3nc4c(N5CC6CCC(C5)N6C(=O)Cc5ccccc5F)cccn4n3)cn2)CC1 [Example 64, 2-(2-fluorophenyl)-1-[3-[2-[[1-[2-(4-methylpiperazin-1-yl)-2-oxo-ethyl]pyrazol-4-yl]amino]-[1,2,4]triazolo[1,5-a]pyridin-8-yl]-3,8-diazabicyclo[3.2.1]octan-8-yl]ethanone] | 1.9 | 7.2
22 | CN1CCN(C(=O)Cn2cc(Nc3nc4c(N5CC6CCCC(C5)N6C(=O)[C@H]5C[C@@H](C(F)(F)F)C5)cccn4n3)cn2)CC1 [Example 65, 1-(4-methylpiperazin-1-yl)-2-[4-[[8-[9-[3-(trifluoromethyl)cyclobutanecarbonyl]-3,9-diazabicyclo[3.3.1]nonan-3-yl]-[1,2,4]triazolo[1,5-a]pyridin-2-yl]amino]pyrazol-1-yl]ethanone] | 0.6 | 0.8
